Measured values from patent publication US20210008084A1, “MEVALONATE PATHWAY INHIBITOR AND PHARMACEUTICAL COMPOSITION THEREOF” (TSINGHUA UNIVERSITY, priority 2017, published 2021).

What was measured:
B16F10 cells [1] = assay: Type I interferon and ISG gene expression by Q-PCR in B16F10; format: cell-based, mouse; conditions: GGOH 20 μM with Sim 10 μM or Zol 10 μM, 48 h
Method: Method: B16F10 cells were cultured with RPMI medium 1640+10% FBS+1% PS, and the remaining cells were cultured with DMEM+10% FBS+1% PS. 5×10^5 B16F10 and 4T1 cells were plated in 6-well plates and adhered for 12 hours, and then treated with simvastatin and zoledronic acid in the figure, and the control group was treated with normal culture medium. A part of the cells treated with the drugs were lysed with 1 ml of Trizol, and RNA was extracted. The expression of IFN-β1, IRF7, IFI44L, IL-15, MAGEB-2 and other genes was detected by LightCycler® 480 II using a Q-PCR method (see table 3 for the primer sequence). In addition, the rescue effect of GGOH on the role of simvastatin and zoledronic acid to promote the release of type I interferon (IFN-β1) and the expression of type I interferon-related stimulated genes ISGs was also tested.

B16F10 cells [2] = assay: Phagocytosis of drug-treated B16F10 cells by bone marrow-derived DC cells; format: cell-based, mouse; conditions: B16F10 treated with Sim 30 μM 12 h, Zol 30 μM 24 h, Doxorubicin 10 μM 12 h; flow cytometry
Method: Method: C57/b6 mouse bone marrow cells were cultured in DC differentiation solution, RMPI 1640+10 ng/ml GM-CSF+10 ng/ml IL-4 containing 10% FBS for 7 days. It was ready for use when the percentage of DC cells was above 90%.
B16F10 cells were plated in 6-well plates at a density of 5×10^5. After being adhered for 12 hours, they were treated with Sim and Zol in the figure, and the control group was treated with normal culture medium. The cells treated with the drug were digested with trypsin, and the cells were obtained after centrifugation.
Cell Staining: Flow Cytometry Staining: B16F10 tumor cells were stained for 30 min in 1 ug/ml CFSE at room temperature, and washed twice with PBS after staining; BMDC cells were stained for 30 min in 1 uM CellTracker™ Red, and washed twice with PBS after staining. Cells were ready for use. Immunofluorescence staining: B16F10 cells were stained with DiD, and DC cells were stained with CFSE.
After the drug treatment, the B16F10 control group Ctrl, Sim treatment group, Zol treatment group, and DOX treatment group were co-incubated with DC cells in a 1:1 ratio for 3 hours in an incubator at 37° C., and fixed with 200 ul fluorescent antibody preservation solution (1 ml formaldehyde, 2 g glucose dissolved in 100 ml PBS) after the incubation. Flow cytometer BD FACSAria SORP was used for detection. Data was analyzed with Flojo 7.6.2 software. Cell Tracker™ Red-positive DC cells were first circled out, and the number of CellTracker™ Red-positive DC cells phagocytosing CFSE-positive tumor cells was analysized.

B16F10 cells [3] = assay: Apoptosis of B16F10 cells, Annexin V and PI staining, flow cytometry; format: cell-based, mouse; conditions: after the drug treatment
Method: After the drug action, the cells were digested with trypsin into a single-cell suspension, washed with PBS, and stained with Annexin V and PI according to the steps of the apoptosis kit. After staining, data was collected by a flow cytometer, and the data was analyzed by FlowJo7.6. Total RNA was extracted from cells according to the Trizol method, and the RNA was used as a template, and the RNA was reverse transcripted using a reverse transcription kit to cDNA. The obtained cDNA was used for real-time quantitative PCR. 10 μl reaction system was configured according to qPCR SYBR Green Master Mix product instructions, three replicates were set up for each sample. The experimental data was collected using a fluorogenic quantitative PCR instrument LightCycler480 of Roche, and the data was calculated according to the 2^−ΔΔc (t) method.

4T1 cells = assay: CRT and ERp57 on tumor cell membrane after intratumoral injection, 4T1 subcutaneous model; format: in vivo, mouse; conditions: 4T1 tumors in BALB/c mice, harvested day 14
Method: In vivo experiments: 1×10^6 4 T1 cells were transplanted subcutaneously into the left hip of BALB/c mice and administered starting on the 8th day after tumor transplantation: Sim, dissolved in 75% DMSO, 2 mg/kg, intratumoral injection (i.t.), once every two days for a total of 3 times; Zol, dissolved in sterile PBS, 1 mg/kg, i.t. for once. Tumors were harvested on the 14th day after tumor transplantation. Tumor dissociation kit (mouse) was used to dissociate the tumor into single cells for staining. The staining procedure was performed according to the in vitro experiments as mentioned above.

CT26 cells = assay: Drug-treated dying CT26 cells as tumor vaccine, re-challenge with live CT26 cells; format: in vivo, mouse; conditions: BALB/c mice immunized with CT26 cells treated 72 h; 30 days after transplantation; n=10
Method: Method: CT26 cells were treated with simvastatin or zoledronic acid. 1.5-3×10^6 dying cells were implanted subcutaneously in the right side of BALB/c mice. The control group was injected with PBS. 1×10^6 live CT26 cells were implanted subcutaneously in the left side of the mice, and tumor volume was observed and measured. Mice with tumor volumes >100 mm^3 were identified as tumor-growing mice, and the number of mice without tumor growth was recorded.
A key factor to determine the ability of drugs to induce immunogenic cell death is whether drug-treated tumor cells can be used as vaccines to protect the body against the re-challenge of the tumor cells. We treated CT26 mouse colon cancer cells with Sim and Zol for 72 h to a dying state, and BALB/c mice were immuned with these dying cells, wherein PBS was injected in the control group. After 7 days, the mice were injected with 5×10^5 live CT26 cells (re-challenge), and the tumor growth was observed after 7 days. 100% of the mice in the control group (n=10) grew tumors on day 9. After 30 days of transplantation, in mice immunized with CT26 cells treated with Sim (n=10) and Zol (n=10), the ratios of tumor-free mice were 80% and 90%, respectively, with statistical difference (FIG. 5).

[4] = after at least 3 years of treatment; more than 1,800 patients; cited from earlier work
melanoma = conditions: patients progressing after Ipilimumab; cited from earlier work

Compound | DC cells that phagocytosed tumor cells (B16F10 cells [2]) | proportion of cells in the late stage of apoptosis (Annexin+PI+) (B16F10 cells [3]) | CRT expressed on the membrane surface (4T1 cells) | ERp57 expressed on the membrane surface (4T1 cells) | ratio of tumor-free mice (CT26 cells) | other results
CC(C)=CCC/C(C)=C/CC/C(C)=C/CC/C(C)=C/CO [GGOH] | – | – | – | – | – | effect of GGOH on release of type I interferon and ISG by simvastatin and zoledronic acid (B16F10 cells [1]): counteract
COc1cccc2c1C(=O)c1c(O)c3c(c(O)c1C2=O)C[C@@](O)(C(=O)CO)C[C@@H]3O[C@H]1C[C@H](N)[C@H](O)[C@H](C)O1 [dox, doxorubicin] | approximately 38% | – | – | – | – | –
CCC(C)(C)C(=O)O[C@H]1C[C@@H](C)C=C2C=C[C@H](C)[C@H](CC[C@@H]3C[C@@H](O)CC(=O)O3)[C@H]21 [simvastatin] | 51.6% | about 50% | about 1.7 times that of the control group | about 1.7 times that of the control group | 80% | –
O=P(O)(O)C(O)(Cn1ccnc1)P(=O)(O)O [zoledronic acid] | about 35% | about 50% | about 1.7 times that of the control group | about 1.7 times that of the control group | 90% | –
Ipilimumab: humanized CTLA-4 antibody | – | – | – | – | – | patient survival rate [4]: approximately 20%
Nivolumab: antibody targeting PD-1 | – | – | – | – | – | patients with complete remission (melanoma): 32%
